Data set [1] addresses Homeodomain-interacting protein kinase 1 (Homo sapiens, UniProt Q86Z02). Nature of the data set: Inhibition of HIPK1 (unknown origin).
In data set [2] the target is Serine/threonine-protein kinase pim-1 (Homo sapiens, UniProt P11309). Description: Inhibition of PIM1 (unknown origin).
The target of data set [3] is Vascular endothelial growth factor receptor 2 (Homo sapiens, UniProt P35968). Nature of the data set: Inhibition of KDR (unknown origin).
In data set [4] the target is High affinity nerve growth factor receptor (Homo sapiens, UniProt P04629). Description: Inhibition of TrkA (unknown origin).
Sequence of High affinity nerve growth factor receptor (P04629 whole entry): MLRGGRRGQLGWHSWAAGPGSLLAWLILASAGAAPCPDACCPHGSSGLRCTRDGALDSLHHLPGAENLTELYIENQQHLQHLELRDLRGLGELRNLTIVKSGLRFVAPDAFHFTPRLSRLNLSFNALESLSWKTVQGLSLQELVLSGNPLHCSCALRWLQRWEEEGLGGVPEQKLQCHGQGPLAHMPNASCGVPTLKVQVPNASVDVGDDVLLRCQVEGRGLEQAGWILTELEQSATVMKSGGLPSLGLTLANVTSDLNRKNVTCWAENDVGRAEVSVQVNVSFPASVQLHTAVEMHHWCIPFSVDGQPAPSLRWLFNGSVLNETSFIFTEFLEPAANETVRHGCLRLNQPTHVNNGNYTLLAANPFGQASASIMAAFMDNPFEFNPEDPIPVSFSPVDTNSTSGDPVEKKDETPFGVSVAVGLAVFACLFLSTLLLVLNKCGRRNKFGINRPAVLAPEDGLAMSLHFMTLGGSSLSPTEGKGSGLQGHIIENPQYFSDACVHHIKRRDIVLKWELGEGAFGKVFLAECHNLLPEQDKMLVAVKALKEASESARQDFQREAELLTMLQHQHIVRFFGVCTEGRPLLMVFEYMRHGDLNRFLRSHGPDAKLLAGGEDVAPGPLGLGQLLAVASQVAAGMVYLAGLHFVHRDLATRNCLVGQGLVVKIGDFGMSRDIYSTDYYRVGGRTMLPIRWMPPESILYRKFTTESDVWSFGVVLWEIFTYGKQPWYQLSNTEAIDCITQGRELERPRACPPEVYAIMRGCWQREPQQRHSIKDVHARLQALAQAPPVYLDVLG
For data set [5], the target named is Tyrosine-protein kinase ABL1 (Homo sapiens, UniProt P00519). Description: Inhibition of c-Abl (unknown origin).
Sequence of Tyrosine-protein kinase ABL1 (P00519 whole entry): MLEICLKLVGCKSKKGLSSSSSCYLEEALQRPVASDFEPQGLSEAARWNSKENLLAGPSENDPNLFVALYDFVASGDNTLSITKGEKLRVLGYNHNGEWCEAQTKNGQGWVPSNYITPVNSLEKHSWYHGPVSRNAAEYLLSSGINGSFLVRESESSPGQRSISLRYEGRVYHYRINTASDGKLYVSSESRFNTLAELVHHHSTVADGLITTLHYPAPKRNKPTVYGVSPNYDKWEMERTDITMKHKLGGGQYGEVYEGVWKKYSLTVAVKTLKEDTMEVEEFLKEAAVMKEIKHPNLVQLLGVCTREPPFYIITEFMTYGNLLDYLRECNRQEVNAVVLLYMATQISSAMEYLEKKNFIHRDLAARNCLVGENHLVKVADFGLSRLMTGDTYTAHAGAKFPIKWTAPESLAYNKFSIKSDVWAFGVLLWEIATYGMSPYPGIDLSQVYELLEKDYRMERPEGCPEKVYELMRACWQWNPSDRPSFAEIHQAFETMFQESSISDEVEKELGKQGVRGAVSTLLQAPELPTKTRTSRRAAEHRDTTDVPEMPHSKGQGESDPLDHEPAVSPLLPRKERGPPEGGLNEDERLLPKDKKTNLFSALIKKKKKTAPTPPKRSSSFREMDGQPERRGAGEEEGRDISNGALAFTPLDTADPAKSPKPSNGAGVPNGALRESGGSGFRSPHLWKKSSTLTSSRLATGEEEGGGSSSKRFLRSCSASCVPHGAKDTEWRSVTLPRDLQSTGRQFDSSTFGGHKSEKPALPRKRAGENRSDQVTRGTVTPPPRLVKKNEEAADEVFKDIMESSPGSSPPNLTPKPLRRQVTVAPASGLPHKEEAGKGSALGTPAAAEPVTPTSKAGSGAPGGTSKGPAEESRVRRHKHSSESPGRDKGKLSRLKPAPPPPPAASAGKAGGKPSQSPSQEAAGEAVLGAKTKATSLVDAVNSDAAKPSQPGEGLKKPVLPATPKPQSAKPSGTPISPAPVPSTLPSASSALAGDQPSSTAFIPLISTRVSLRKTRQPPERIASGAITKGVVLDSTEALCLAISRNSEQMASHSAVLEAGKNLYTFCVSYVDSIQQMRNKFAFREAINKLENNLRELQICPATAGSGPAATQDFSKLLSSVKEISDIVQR
For data set [6], the target named is Tyrosine-protein kinase Yes (Homo sapiens, UniProt P07947). Description: Inhibition of YES (unknown origin).
Sequence of Tyrosine-protein kinase Yes (P07947 whole entry): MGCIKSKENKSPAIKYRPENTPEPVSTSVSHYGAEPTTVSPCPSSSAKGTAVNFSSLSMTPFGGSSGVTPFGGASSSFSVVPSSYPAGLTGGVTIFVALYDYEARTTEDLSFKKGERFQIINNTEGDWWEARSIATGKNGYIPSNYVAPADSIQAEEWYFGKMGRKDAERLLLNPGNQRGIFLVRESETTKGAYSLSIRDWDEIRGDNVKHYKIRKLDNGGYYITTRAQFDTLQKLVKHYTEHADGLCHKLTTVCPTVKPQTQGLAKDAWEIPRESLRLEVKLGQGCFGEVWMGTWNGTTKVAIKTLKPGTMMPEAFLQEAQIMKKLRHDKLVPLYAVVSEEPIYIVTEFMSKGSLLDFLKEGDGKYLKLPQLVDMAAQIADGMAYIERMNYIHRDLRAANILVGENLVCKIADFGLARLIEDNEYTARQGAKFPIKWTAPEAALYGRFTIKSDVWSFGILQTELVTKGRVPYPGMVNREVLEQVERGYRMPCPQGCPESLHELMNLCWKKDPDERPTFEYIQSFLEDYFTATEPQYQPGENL
A short description of data set [7]: Chromatographic hydrophobicity index, CHI of the compound by RP-HPLC method. It is filed as physicochemical.
A short description of data set [8]: Lipophilicity, logD of the compound at pH 7.4 by RP-HPLC method based chromatographic hydrophobicity index determination. It is filed as physicochemical. As to conditions: buffer.
A short description of data set [9]: Antiproliferative activity against human HCT116 cells. It is filed as functional, cell-based. As to conditions: HCT-116.
In data set [10] the test system is MDA-MB-468. Nature of the data set: Antiproliferative activity against human MDA-MB-468 cells. It is filed as functional, cell-based.
Data set [11] in a line: Antiproliferative activity against human PC3 cells. The class given is functional, cell-based. As to conditions: PC-3.
The subject of data set [12] is A549. Nature of the data set: Antiproliferative activity against human A549 cells. The class given is functional, cell-based.
A short description of data set [13]: Antiproliferative activity against human U87MG cells. It is filed as functional, cell-based, U-87MG ATCC. As to conditions: U-87 MG.
For data set [14], the target named is Mitogen-activated protein kinase 1 (Homo sapiens, UniProt P28482). Description: Inhibition of ERK2 (unknown origin).
Sequence of Mitogen-activated protein kinase 1 (P28482 whole entry): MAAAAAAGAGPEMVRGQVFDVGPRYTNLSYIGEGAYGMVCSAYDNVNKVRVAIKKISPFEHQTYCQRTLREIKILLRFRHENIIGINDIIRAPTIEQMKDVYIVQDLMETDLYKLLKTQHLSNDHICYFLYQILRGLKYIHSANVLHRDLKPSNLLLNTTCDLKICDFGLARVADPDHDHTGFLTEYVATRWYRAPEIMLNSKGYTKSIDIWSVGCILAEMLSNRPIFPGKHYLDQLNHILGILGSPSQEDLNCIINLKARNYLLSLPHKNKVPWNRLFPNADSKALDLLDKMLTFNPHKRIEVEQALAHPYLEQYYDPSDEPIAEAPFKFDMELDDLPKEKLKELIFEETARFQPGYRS
Data set [15] is described as follows: Solubility in PBS buffer at pH 7.4 in presence of 1% BSA. The class given is physicochemical. The following applies: PBS buffer with 1% BSA.
The nature of data set [16]: Stability in mouse liver microsomes assessed as parent compound remaining after 1 hr. The class given is ADME. The following applies: read-out: Stability. (Liver microsomes are vesicles of endoplasmic reticulum, rich in cytochrome P450 enzymes.)
Data set [17] can be described thus: Stability in mouse plasma assessed as parent compound remaining after 6 hrs. It is filed as ADME, cell-free. The following applies: read-out: Stability.
A short description of data set [18]: Permeability from apical to basolateral side in human Caco2 cells in presence of 1% BSA. The class given is ADME, cell-based. The following applies: Caco-2, read-out: permeability.
Data set [19] can be described thus: Permeability from basolateral to apical side in human Caco2 cells in presence of 1% BSA. The class given is ADME, cell-based. The following applies: Caco-2, read-out: permeability. In general terms: Caco-2 cells form a polarised layer with tight junctions and transporters.
Data set [20] in a line: Efflux ratio in human Caco2 cells in presence of 1% BSA. The class given is ADME, cell-based. As to conditions: Caco-2.
In data set [21] the target is Cytochrome P450 3A4 (Homo sapiens, UniProt P08684). Nature of the data set: Inhibition of CYP3A4 (unknown origin). It is filed as ADME.
Sequence of Cytochrome P450 3A4 (P08684 whole entry): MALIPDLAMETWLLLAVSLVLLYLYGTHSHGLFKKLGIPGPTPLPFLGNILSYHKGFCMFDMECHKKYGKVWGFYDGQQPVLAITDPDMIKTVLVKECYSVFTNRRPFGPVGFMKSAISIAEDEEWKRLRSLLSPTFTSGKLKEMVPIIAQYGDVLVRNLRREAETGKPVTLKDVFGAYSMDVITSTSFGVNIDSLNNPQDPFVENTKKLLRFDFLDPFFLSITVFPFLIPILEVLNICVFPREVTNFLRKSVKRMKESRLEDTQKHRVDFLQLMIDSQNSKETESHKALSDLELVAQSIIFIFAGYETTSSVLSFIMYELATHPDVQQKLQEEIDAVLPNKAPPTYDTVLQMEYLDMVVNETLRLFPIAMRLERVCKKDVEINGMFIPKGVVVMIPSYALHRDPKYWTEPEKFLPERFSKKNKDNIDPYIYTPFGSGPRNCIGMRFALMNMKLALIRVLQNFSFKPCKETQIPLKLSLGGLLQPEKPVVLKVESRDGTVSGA
The target in data set [22] is Voltage-gated inwardly rectifying potassium channel KCNH2 (Homo sapiens, UniProt Q12809). Description: Binding affinity to human ERG.

Sequence of Vascular endothelial growth factor receptor 2 (P35968 whole entry): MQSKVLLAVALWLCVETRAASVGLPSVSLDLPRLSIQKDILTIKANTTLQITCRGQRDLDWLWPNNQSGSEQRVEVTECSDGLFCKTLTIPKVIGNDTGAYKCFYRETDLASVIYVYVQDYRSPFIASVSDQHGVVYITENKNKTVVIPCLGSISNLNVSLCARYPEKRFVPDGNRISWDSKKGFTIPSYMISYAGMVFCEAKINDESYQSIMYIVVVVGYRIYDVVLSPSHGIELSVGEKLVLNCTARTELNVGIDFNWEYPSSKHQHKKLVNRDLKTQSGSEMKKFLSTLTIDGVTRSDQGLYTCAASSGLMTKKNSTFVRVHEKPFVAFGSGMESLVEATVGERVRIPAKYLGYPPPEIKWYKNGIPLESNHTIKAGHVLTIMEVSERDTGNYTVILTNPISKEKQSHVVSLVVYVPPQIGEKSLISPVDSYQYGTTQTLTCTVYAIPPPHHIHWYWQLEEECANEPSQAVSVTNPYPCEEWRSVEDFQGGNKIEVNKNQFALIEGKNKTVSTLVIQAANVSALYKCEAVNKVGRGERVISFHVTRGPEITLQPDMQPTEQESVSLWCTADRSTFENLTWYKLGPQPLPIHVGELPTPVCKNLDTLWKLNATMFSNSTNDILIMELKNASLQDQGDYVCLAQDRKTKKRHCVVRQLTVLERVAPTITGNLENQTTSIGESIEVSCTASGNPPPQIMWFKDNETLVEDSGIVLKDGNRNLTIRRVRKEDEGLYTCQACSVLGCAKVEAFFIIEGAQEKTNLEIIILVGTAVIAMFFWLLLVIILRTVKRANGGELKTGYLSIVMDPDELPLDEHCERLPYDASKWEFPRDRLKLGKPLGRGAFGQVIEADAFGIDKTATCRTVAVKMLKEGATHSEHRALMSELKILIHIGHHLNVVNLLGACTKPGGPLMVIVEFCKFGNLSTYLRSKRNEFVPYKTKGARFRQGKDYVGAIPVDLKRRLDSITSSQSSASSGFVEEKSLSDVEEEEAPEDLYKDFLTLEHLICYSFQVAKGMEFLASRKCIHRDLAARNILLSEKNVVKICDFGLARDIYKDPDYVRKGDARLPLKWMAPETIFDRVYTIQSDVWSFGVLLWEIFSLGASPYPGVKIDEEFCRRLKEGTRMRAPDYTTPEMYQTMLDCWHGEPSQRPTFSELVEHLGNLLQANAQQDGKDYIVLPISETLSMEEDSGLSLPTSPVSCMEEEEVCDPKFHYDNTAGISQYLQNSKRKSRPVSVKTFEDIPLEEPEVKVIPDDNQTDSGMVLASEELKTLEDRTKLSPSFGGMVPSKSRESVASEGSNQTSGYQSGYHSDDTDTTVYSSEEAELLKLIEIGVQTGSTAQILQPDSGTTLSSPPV
Sequence of Serine/threonine-protein kinase pim-1 (P11309 whole entry): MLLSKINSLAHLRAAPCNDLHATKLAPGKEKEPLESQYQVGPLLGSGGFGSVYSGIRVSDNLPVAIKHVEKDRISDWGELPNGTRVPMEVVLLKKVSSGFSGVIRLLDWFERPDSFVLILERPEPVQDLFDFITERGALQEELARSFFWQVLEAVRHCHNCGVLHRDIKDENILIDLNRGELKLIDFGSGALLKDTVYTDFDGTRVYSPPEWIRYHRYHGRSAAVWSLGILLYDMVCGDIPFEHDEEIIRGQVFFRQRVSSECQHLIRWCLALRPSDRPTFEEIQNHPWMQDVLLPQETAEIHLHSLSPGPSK

As for `Cn1cc(-c2cnc3ccc(NC(=O)Nc4ccccc4)nc3c2)cn1`, the half-inhibitory concentration (IC50) (usually the concentration that inhibits the measured activity by half) was over 100 µM in data set [1]; over 31.6 µM in [2]; over 100 µM in data set [3]; over 100 µM in [4]; over 100 µM in [5]; over 100 µM in data set [6]. The IC50 was 1.38 µM in data set [9]; 1.31 µM in [10]; 1.37 µM in [11]; 3.08 µM in data set [12]; over 50 µM in data set [13]. Further, in data set [7], the CHI came out at 73.3. Besides, in [8], the chromatographic logD – broadly, a lipophilicity value derived from retention on a column – worked out at 2.4.

Take `Cn1cc(-c2cnc3c(NC(=O)NC(C)(C)C)ccnc3c2)cn1`: it took 31.6 µM to reach half-maximal inhibition in [14] (IC50).

With `Cn1cc(-c2cnc3ccc(NC(=O)NCc4ccccc4)nc3c2)cn1`, the IC50 in data set [1] was over 100 µM; in data set [2], over 31.6 µM; in data set [3] it was over 100 µM; in data set [4], over 100 µM; in data set [5], over 100 µM; in data set [6] it was over 100 µM. In addition, the IC50 in [9] was 0.191 µM; in data set [10], over 50 µM; in [11], over 50 µM; in data set [12], over 50 µM; in [13], over 50 µM. The compound further had a CHI in data set [7] of 69.4. In data set [8], the chromatographic logD was 2.2.

Consider `Cn1cc(-c2cnc3ccc(NC(=O)NC(C)(C)C)nc3c2)cn1`, for which the IC50 is over 100 µM in data set [1]; over 100 µM in data set [2]; over 100 µM in [3]; 4.5 µM in data set [4]; 6.05 µM in data set [5]; 7.95 µM in [6]. Besides, the IC50 was 0.651 µM in [9]; 1.96 µM in data set [10]; 0.671 µM in data set [11]; 1 µM in data set [12]; over 50 µM in data set [13]. Also, in [7], the CHI was 76.1. For the same compound, the chromatographic logD in [8] was found to be 2.5.

With `Cn1cc(-c2cnc3ccc(NC(=O)NCCc4ccccc4)nc3c2)cn1`, the IC50 in [1] was over 100 µM; in data set [2], 32.5 µM; in [3], over 100 µM; in [4] it was 12.7 µM; in data set [5], over 100 µM; in data set [6] it was 26.9 µM. Moreover, the figures for the IC50 in [9], in [10] and in data set [13] were 1.2 µM, 1.8 µM and over 50 µM, respectively. Also, the CHI in [7] turned out to be 71.6. In [8], this compound registered a chromatographic logD of 2.3. For the same compound, the solubility (usually the dissolved amount per volume that the medium holds) in [15] came out at 3.9 µM. Further, the remaining at 1 h in data set [16] was found to be 81.1%. In addition, in [17], the remaining at 6 h was 96.7%. Also, the Papp A→B in data set [18] was found to be 64 ×10⁻⁶ cm/s. The Papp B→A in data set [19] worked out at 29 ×10⁻⁶ cm/s. Besides, the efflux ratio (as a rule, the permeability from basolateral to apical divided by that in the opposite direction, in the common usage) in data set [20] came to 0.45. Besides, the results for the INH in [21] and in [22] were over 100 µM and over 60 µM, respectively.

`CCNC(=O)Nc1ccc2ncc(-c3ccc(OC)cc3)cc2n1`: the IC50 was over 100 µM in data set [1]; 37.1 µM in data set [2]; over 100 µM in data set [3]; over 100 µM in data set [4]; 20.8 µM in [5]; over 100 µM in data set [6]. Also, the concentration for half-maximal inhibition (IC50) is 15.9 µM in [9]; over 50 µM in data set [10]; over 50 µM in data set [11]; over 50 µM in data set [12]; over 50 µM in [13].

Consider `COc1cc(-c2cnc3ccc(NC(=O)NC(C)(C)C)nc3c2)ccc1O`, for which the IC50 in data set [1] was over 100 µM; in [2] it was over 100 µM; in data set [3] it was over 100 µM; in data set [4], 80.6 µM; in data set [5], over 100 µM; in [6], 42.9 µM. Besides, the half-maximal inhibitory concentration (IC50) in data set [9] came out at 4.59 µM; in data set [10], 3.89 µM; in data set [11], 4.91 µM; in [12], 14.2 µM; in data set [13], 9.68 µM. The compound also showed a CHI in data set [7] of 79.3. Moreover, the chromatographic logD in [8] is 2.7.

For the compound `COc1ccc(-c2cnc3ccc(NC(=O)NC(C)(C)C)nc3c2)cc1OC`, the concentration for half-maximal inhibition (IC50) is over 100 µM in data set [1]; over 100 µM in data set [2]; over 100 µM in data set [3]; over 100 µM in data set [4]; over 100 µM in data set [5]; 85.5 µM in [6]. For the same compound, the 50% inhibitory concentration (IC50) in [9], in [10], in data set [11], in data set [12] and in data set [13] was over 50 µM throughout. This compound returned a CHI in data set [7] of 88.8. Besides, the chromatographic logD in data set [8] is 3.2. The solubility in data set [15] was found to be 8.5 µM. In addition, the remaining at 1 h in data set [16] turned out to be 70.4%.

Take `CCNC(=O)Nc1ccc2ncc(-c3ccc(OC)c(OC)c3)cc2n1`: the IC50 in data set [1] was 13.6 µM; in data set [2] it was over 100 µM; in [3], over 100 µM; in [4] it was over 100 µM; in data set [5], over 100 µM; in data set [6], 41.8 µM. In addition, the IC50 in data set [9] is 4.36 µM; in data set [10], 21.9 µM; in [11] it was over 50 µM; in data set [12], over 50 µM; in [13], over 50 µM. The CHI in data set [7] was found to be 73.3. This compound also displayed a chromatographic logD in [8] of 2.4. The solubility in data set [15] was 5.7 µM. The remaining at 1 h in data set [16] stood at 45.4%.

These data come from ChEMBL document CHEMBL3351448, “Discovery of (7-aryl-1,5-naphthyridin-2-yl)ureas as dual inhibitors of ERK2 and Aurora B kinases with antiproliferative activity against cancer cells” (Bioorg Med Chem Lett, 2014).
